According to the supplement of paper PMC10307832:

How the values were obtained:
Assay in all cases: relative viability (nuclei count vs DMSO), 5 days (fraction); higher = more cells survive
PC-14 = system: PC-14
In short: (§1)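 Relative viability equals treated-well nuclei counts divided by vehicle-well nuclei counts. Counts came from 4× images of lung cancer cell lines grown in 1536-well plates for 5 days after pin-tool dosing on the day after seeding. Dosing used one drug alone or a fixed anchor-drug dose plus five library-drug doses (not always all listed) in √10 steps, and values are medians of duplicate plates.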

HCC-366 = system: HCC-366
In short: as §1

NCI-H2228 = system: NCI-H2228
In short: as §1

NCI-H2347 = system: NCI-H2347
In short: as §1

SW 1573 = system: SW 1573
In short: as §1

NCI-H596 = system: NCI-H596
In short: as §1

EBC-1 = system: EBC-1
In short: as §1

LC-2-ad = system: LC-2-ad
In short: as §1

HOP-62 = system: HOP-62
In short: as §1

NCI-H2085 = system: NCI-H2085
In short: as §1

ChaGo-K-1 = system: ChaGo-K-1
In short: as §1

RERF-LC-KJ = system: RERF-LC-KJ
In short: as §1

NCI-H2405 = system: NCI-H2405
In short: as §1

HCC-78 = system: HCC-78
In short: as §1

EMC-BAC-2 = system: EMC-BAC-2
In short: as §1

NCI-H2009 = system: NCI-H2009
In short: as §1

NCI-H1993 = system: NCI-H1993
In short: as §1

NCI-H1734 = system: NCI-H1734
In short: as §1

NCI-H1355 = system: NCI-H1355
In short: as §1

CAL-12T = system: CAL-12T
In short: as §1

Calu-6 = system: Calu-6
In short: as §1

NCI-H3122 = system: NCI-H3122
In short: as §1

In the case of `CCCCCCCCCCCC1=C(O)C(=O)C=C(O)C1=O` [Embelin] + CC(C)C[C@H](NC(=O)[C@H](Cc1ccccc1)NC(=O)c1cnccn1)B(O)O [Bortezomib] (partner 0.002 µM), the relative viability (PC-14; first compound 0.08 µM) is reported as 0.858, the relative viability (PC-14; first compound 0.8 µM) is reported as 0.899 and the relative viability (PC-14; first compound 2.53 µM) is reported as 0.84. The relative viability (PC-14; first compound 8 µM) was 0.87, the relative viability (HCC-366; first compound 0.08 µM) was 1.05 and the relative viability (HCC-366; first compound 0.8 µM) was 1.05. For the same compound, the relative viability (HCC-366; first compound 2.53 µM) was 1.43, the relative viability (HCC-366; first compound 8 µM) was 1.1 and the relative viability (NCI-H2228; first compound 0.08 µM) was 0.939. For the same compound, the relative viability (NCI-H2228; first compound 0.8 µM) was 1.03, the relative viability (NCI-H2228; first compound 2.53 µM) was 1.29 and the relative viability (NCI-H2228; first compound 8 µM) was 1.26. The relative viability (NCI-H2347; first compound 0.08 µM) was 1.15, the relative viability (NCI-H2347; first compound 0.8 µM) was 1.1 and the relative viability (NCI-H2347; first compound 2.53 µM) was 1.15. The relative viability (NCI-H2347; first compound 8 µM) was 1.05, the relative viability (SW 1573; first compound 0.08 µM) was 1.26 and the relative viability (SW 1573; first compound 0.8 µM) was 1.29. For the same compound, the relative viability (SW 1573; first compound 2.53 µM) was 1.2, the relative viability (SW 1573; first compound 8 µM) was 1.27 and the relative viability (NCI-H596; first compound 0.08 µM) was 0.955. It also gave a relative viability (NCI-H596; first compound 0.8 µM) of 1.17, a relative viability (NCI-H596; first compound 2.53 µM) of 1.3 and a relative viability (NCI-H596; first compound 8 µM) of 0.87. It also gave a relative viability (EBC-1; first compound 0.08 µM) of 0.485, a relative viability (EBC-1; first compound 0.8 µM) of 0.678 and a relative viability (EBC-1; first compound 2.53 µM) of 0.565. It also gave a relative viability (EBC-1; first compound 8 µM) of 0.545, a relative viability (LC-2-ad; first compound 0.08 µM) of 0.959 and a relative viability (LC-2-ad; first compound 0.8 µM) of 1.1. It also gave a relative viability (LC-2-ad; first compound 2.53 µM) of 1.05, a relative viability (LC-2-ad; first compound 8 µM) of 1.02 and a relative viability (HOP-62; first compound 0.08 µM) of 0.924. The relative viability (HOP-62; first compound 0.8 µM) was 0.846, the relative viability (HOP-62; first compound 2.53 µM) was 1.15 and the relative viability (HOP-62; first compound 8 µM) was 0.727. The relative viability (NCI-H2085; first compound 0.08 µM) was 0.989, the relative viability (NCI-H2085; first compound 0.8 µM) was 1.07 and the relative viability (NCI-H2085; first compound 2.53 µM) was 1.07. The relative viability (NCI-H2085; first compound 8 µM) was 1.03, the relative viability (ChaGo-K-1; first compound 0.08 µM) was 0.988 and the relative viability (ChaGo-K-1; first compound 0.8 µM) was 1.37. It also gave a relative viability (ChaGo-K-1; first compound 2.53 µM) of 0.946, a relative viability (ChaGo-K-1; first compound 8 µM) of 0.793 and a relative viability (RERF-LC-KJ; first compound 0.08 µM) of 0.984. It also gave a relative viability (RERF-LC-KJ; first compound 0.8 µM) of 1.31, a relative viability (RERF-LC-KJ; first compound 2.53 µM) of 1.3 and a relative viability (RERF-LC-KJ; first compound 8 µM) of 1.19. It also gave a relative viability (NCI-H2405; first compound 0.08 µM) of 1.03, a relative viability (NCI-H2405; first compound 0.8 µM) of 1.03 and a relative viability (NCI-H2405; first compound 2.53 µM) of 1.02. The relative viability (NCI-H2405; first compound 8 µM) was 1.01, the relative viability (HCC-78; first compound 0.08 µM) was 0.605 and the relative viability (HCC-78; first compound 0.8 µM) was 0.532. It also gave a relative viability (HCC-78; first compound 2.53 µM) of 0.555, a relative viability (HCC-78; first compound 8 µM) of 0.438 and a relative viability (EMC-BAC-2; first compound 0.08 µM) of 1.04. For the same compound, the relative viability (EMC-BAC-2; first compound 0.8 µM) was 1.18, the relative viability (EMC-BAC-2; first compound 2.53 µM) was 1.21 and the relative viability (EMC-BAC-2; first compound 8 µM) was 1.09. The relative viability (NCI-H2009; first compound 0.08 µM) was 1.07, the relative viability (NCI-H2009; first compound 0.8 µM) was 1.18 and the relative viability (NCI-H2009; first compound 2.53 µM) was 0.916. It also gave a relative viability (NCI-H2009; first compound 8 µM) of 0.9, a relative viability (NCI-H1993; first compound 0.08 µM) of 1.16 and a relative viability (NCI-H1993; first compound 0.8 µM) of 1.14. The relative viability (NCI-H1993; first compound 2.53 µM) was 1.22, the relative viability (NCI-H1993; first compound 8 µM) was 1.08 and the relative viability (NCI-H1734; first compound 0.08 µM) was 0.882. For the same compound, the relative viability (NCI-H1734; first compound 0.8 µM) was 1.35, the relative viability (NCI-H1734; first compound 2.53 µM) was 1.14 and the relative viability (NCI-H1734; first compound 8 µM) was 0.944. It also gave a relative viability (NCI-H1355; first compound 0.08 µM) of 1.16, a relative viability (NCI-H1355; first compound 0.8 µM) of 1.24 and a relative viability (NCI-H1355; first compound 2.53 µM) of 1.21. It also gave a relative viability (NCI-H1355; first compound 8 µM) of 1.02, a relative viability (CAL-12T; first compound 0.08 µM) of 0.996 and a relative viability (CAL-12T; first compound 0.8 µM) of 1.27. The relative viability (CAL-12T; first compound 8 µM) was 1.04, the relative viability (Calu-6; first compound 0.08 µM) was 1.1 and the relative viability (Calu-6; first compound 0.8 µM) was 1.03. The relative viability (Calu-6; first compound 2.53 µM) was 0.966, the relative viability (Calu-6; first compound 8 µM) was 1.15 and the relative viability (NCI-H3122; first compound 0.08 µM) was 0.978. For the same compound, the relative viability (NCI-H3122; first compound 0.8 µM) was 1.03, the relative viability (NCI-H3122; first compound 2.53 µM) was 0.916 and the relative viability (NCI-H3122; first compound 8 µM) was 0.992.
